This passage reports IC50 results from US20190071416A1, “COMPOUNDS FOR TREATMENT OF CANCER AND EPIGENETICS” (Agency For Science, Technology and Research, priority 2015, published 2019).

pIC50: −log10 of the molar value.

The assay deals with T1, SMYD3 (Homo sapiens, UniProt Q9H7B4).
T1 sequence (Q9H7B4 1-428): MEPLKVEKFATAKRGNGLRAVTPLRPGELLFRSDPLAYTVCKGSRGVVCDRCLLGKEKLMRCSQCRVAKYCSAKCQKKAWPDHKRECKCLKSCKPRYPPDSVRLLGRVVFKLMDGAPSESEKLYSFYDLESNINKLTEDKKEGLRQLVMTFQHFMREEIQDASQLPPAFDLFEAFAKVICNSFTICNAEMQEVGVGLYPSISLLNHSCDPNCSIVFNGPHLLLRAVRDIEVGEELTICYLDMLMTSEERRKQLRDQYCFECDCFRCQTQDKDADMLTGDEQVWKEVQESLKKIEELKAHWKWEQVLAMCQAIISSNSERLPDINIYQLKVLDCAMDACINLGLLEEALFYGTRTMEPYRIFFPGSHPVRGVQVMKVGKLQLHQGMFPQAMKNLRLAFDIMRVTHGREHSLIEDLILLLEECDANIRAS
Description: SMYD3 biochemical assay (MTase-Glo, MAP3K2 peptide substrate). To be noted: Table 3; MTase assay, MAP3K2 peptide substrate; read-out: IC50. The essentials: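 Methylation of MAP3K2 peptide (10 µM final) with SAM (1.0 µM final) by SMYD3, 30 min at room temperature. SAH formed was enzymatically converted to ATP and detected as luminescence with MTase-Glo reagents; IC50 by non-linear regression.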
One may read the pIC50 as the negative decadic logarithm of the IC50, by convention in mol/L. Take `CCCOC(=O)N1CCN(C(=O)c2ccc3c(Cl)c4c(nc3c2)CC(c2ccnc(C#N)n2)CC4)CC1` (stereo not shown) [A148, Propyl 4-(9-chloro-6-(2-cyanopyrimidin-4-yl)-5,6,7,8-tetrahydroacridine-3-carbonyl)piperazine-1-carboxylate]: the pIC50 was 6.52.

Regarding `C#Cc1ccc(C2CCc3c(nc4cc(C(=O)N5CCN(C(=O)OCCC)[C@H](C)C5)ccc4c3Cl)C2)nc1` (stereo partly drawn) [A149, Propyl (2R)-4-(9-chloro-6-(5-ethynylpyridin-2-yl)-5,6,7,8-tetrahydroacridine-3-carbonyl)-2-methylpiperazine-1-carboxylate], the pIC50 is 6.59.

For `C#Cc1ccc(C2CCc3c(nc4cc(C(=O)N5CCN(C(=O)OCCC)C[C@@H]5C)ccc4c3Cl)C2)nc1` (stereo partly drawn) [A150, Propyl (3S)-4-(9-chloro-6-(5-ethynylpyridin-2-yl)-5,6,7,8-tetrahydroacridine-3-carbonyl)-3-methylpiperazine-1-carboxylate], the pIC50 was 6.59.

With `CCCOC(=O)N1CCN(C(=O)c2ccc3c(Cl)c4c(nc3c2)CC(c2cnn(C)c2)CC4)CC1` (stereo not shown) [A151, Propyl 4-(9-chloro-6-(1-methyl-1H-pyrazol-4-yl)-5,6,7,8-tetrahydroacridine-3-carbonyl)piperazine-1-carboxylate], the negative-log IC50 (pIC50) is 7.34.

As for `CCCOC(=O)N1CCN(C(=O)c2ccc3c(Cl)cc(-c4cccnc4)nc3c2)CC1` [B001, Propyl 4-(4-chloro-2-(pyridin-3-yl)quinoline-7-carbonyl)piperazine-1-carboxylate], the pIC50 was 5.62.

On to `CCCOC(=O)N1CCN(C(=O)c2ccc3c(Cl)cc(-c4ccccc4)nc3c2)CC1` [B002, Propyl 4-(4-chloro-2-phenylquinoline-7-carbonyl)piperazine-1-carboxylate], for which the pIC50 was 6.39.

On to `CCCOC(=O)N1CCN(C(=O)c2ccc3c(Cl)c(CC)c(-c4ccccc4)nc3c2)CC1` [B004, Propyl 4-(4-chloro-3-ethyl-2-phenylquinoline-7-carbonyl)piperazine-1-carboxylate], for which the pIC50 is 5.85.

`CCCOC(=O)N1CCN(C(=O)c2ccc3c(Cl)cc(-c4cncc(C)c4)nc3c2)CC1` [B005, Propyl 4-(4-chloro-2-(5-methylpyridin-3-yl)quinoline-7-carbonyl)piperazine-1-carboxylate]: the pIC50 is 5.60.

For `CCCOC(=O)N1CCN(C(=O)c2ccc3c(Cl)c(C)c(-c4ccccc4)nc3c2)C[C@@H]1C` [B006, Propyl (S)-4-(4-chloro-3-methyl-2-phenylquinoline-7-carbonyl)-2-methylpiperazine-1-carboxylate], the pIC50 is 6.80.

`CCCOC(=O)N1CCN(C(=O)c2ccc3c(Cl)c(C)c(-c4ccccc4)nc3c2)C[C@H]1C` [B007, Propyl (R)-4-(4-chloro-3-methyl-2-phenylquinoline-7-carbonyl)-2-methylpiperazine-1-carboxylate]: the pIC50 is 6.66.

Consider `CCCOC(=O)N1CCN(C(=O)c2ccc3c(Cl)cc(-c4ccccn4)nc3c2)CC1` [B008, Propyl 4-(4-chloro-2-(pyridin-2-yl)quinoline-7-carbonyl)piperazine-1-carboxylate], for which the pIC50 is 5.85.

For the compound `CCCOC(=O)N1CCN(C(=O)c2ccc3c(Cl)cc(Cc4ccccc4)nc3c2)CC1` [B009, Propyl 4-(2-benzyl-4-chloroquinoline-7-carbonyl)piperazine-1-carboxylate], the pIC50 is 5.48.

In the case of `CCCOC(=O)N1CCN(C(=O)c2ccc3c(Cl)cc(-c4ccc(C)cc4)nc3c2)CC1` [B010], the negative logarithm of the IC50 (pIC50) was 6.30.

As for `CCCOC(=O)N1CCN(C(=O)c2ccc3c(Cl)cc(-c4cccc(C)c4)nc3c2)CC1` [B011, Propyl 4-(4-chloro-2-(m-tolyl)quinoline-7-carbonyl)piperazine-1-carboxylate], the pIC50 was 6.11.

As for `CCCOC(=O)N1CCN(C(=O)c2ccc3c(Cl)cc(-c4ccccc4C)nc3c2)CC1` [B012, Propyl 4-(4-chloro-2-(o-tolyl)quinoline-7-carbonyl)piperazine-1-carboxylate], the pIC50 is 5.54.

Consider `CCCOC(=O)N1CCN(C(=O)c2ccc3c(Cl)cc(-c4ccncc4)nc3c2)CC1` [B013, Propyl 4-(4-chloro-2-(pyridin-4-yl)quinoline-7-carbonyl)piperazine-1-carboxylate], for which the pIC50 is 6.02.

As for `CCCOC(=O)N1CCN(C(=O)c2ccc3c(Cl)cc(-c4ccccc4)nc3c2)[C@@H](C)C1` [B014, Propyl (S)-4-(4-chloro-2-phenylquinoline-7-carbonyl)-3-methylpiperazine-1-carboxylate], the pIC50 is 6.77.

In the case of `CCCOC(=O)N1CCN(C(=O)c2ccc3c(Cl)cc(-c4ccccc4)nc3c2)[C@H](C)C1` [B015, Propyl (R)-4-(4-chloro-2-phenylquinoline-7-carbonyl)-3-methylpiperazine-1-carboxylate], the pIC50 was 6.72.

As to `CCCOC(=O)N1CCN(C(=O)c2ccc3c(Cl)c(C)c(-c4ccccc4)nc3c2)[C@@H](C)C1` [B016, Propyl (S)-4-(4-chloro-3-methyl-2-phenylquinoline-7-carbonyl)-3-methylpiperazine-1-carboxylate], the pIC50 is 6.82.

As to `CCCOC(=O)N1CCN(C(=O)c2ccc3c(Cl)c(C)c(-c4ccccc4)nc3c2)[C@H](C)C1` [B017, Propyl (R)-4-(4-chloro-3-methyl-2-phenylquinoline-7-carbonyl)-3-methylpiperazine-1-carboxylate], the pIC50 is 6.52.

Turning to `CCCOC(=O)N1CCN(C(=O)c2ccc3c(Cl)cc(-c4ccccc4)nc3c2)C[C@@H]1C` [B018, Propyl (S)-4-(4-chloro-2-phenylquinoline-7-carbonyl)-2-methylpiperazine-1-carboxylate], the pIC50 was 6.89.

For the compound `CCCOC(=O)N1CCN(C(=O)c2ccc3c(Cl)c(C)c(-c4ccc(C(F)(F)F)cc4)nc3c2)CC1` [B020, Propyl 4-(4-chloro-3-methyl-2-(4-(trifluoromethyl)phenyl)quinoline-7-carbonyl)piperazine-1-carboxylate], the pIC50 is 5.49.

`CCCOC(=O)N1CCN(C(=O)c2ccc3c(Cl)c(C)c(-c4ccc(Cl)cc4)nc3c2)CC1` [B021, Propyl 4-(4-chloro-2-(4-chlorophenyl)-3-methylquinoline-7-carbonyl)piperazine-1-carboxylate]: the pIC50 was 5.89.

Turning to `CCCOC(=O)N1CCN(C(=O)c2ccc3c(Cl)c(C)c(-c4ccc(F)cc4)nc3c2)CC1` [B022, Propyl 4-(4-chloro-2-(4-fluorophenyl)-3-methylquinoline-7-carbonyl)piperazine-1-carboxylate], the pIC50 was 6.07.

Take `CCCOC(=O)N1CCN(C(=O)c2ccc3c(Cl)c(C)c(-c4ccc(C)cc4)nc3c2)[C@H](C)C1` [B023, Propyl (R)-4-(4-chloro-3-methyl-2-(p-tolyl)quinoline-7-carbonyl)-3-methylpiperazine-1-carboxylate]: the negative-log IC50 (pIC50) is 6.16.

For `CCCOC(=O)N1CCN(C(=O)c2ccc3c(Cl)c(C)c(-c4ccc(C)cc4)nc3c2)[C@@H](C)C1` [B024, Propyl (S)-4-(4-chloro-3-methyl-2-(p-tolyl)quinoline-7-carbonyl)-3-methylpiperazine-1-carboxylate], the negative logarithm of the IC50 (pIC50) was 6.17.

Turning to `CCCOC(=O)N1CCN(C(=O)c2ccc3c(Cl)c(C)c(-c4ccc(C)cc4)nc3c2)CC1` [B025, Propyl 4-(4-chloro-3-methyl-2-(p-tolyl)quinoline-7-carbonyl)piperazine-1-carboxylate], the negative-log IC50 (pIC50) is 6.17.

Turning to `CCCOC(=O)N1CCN(C(=O)c2ccc3c(Cl)c(C)c(-c4ccc(OC)cc4)nc3c2)[C@@H](C)C1` [B026, Propyl (S)-4-(4-chloro-2-(4-methoxyphenyl)-3-methylquinoline-7-carbonyl)-3-methylpiperazine-1-carboxylate], the pIC50 was 6.57.

`CCCOC(=O)N1CCN(C(=O)c2ccc3c(Cl)c(C)c(-c4ccccc4C)nc3c2)CC1` [B027, Propyl 4-(4-chloro-3-methyl-2-(o-tolyl)quinoline-7-carbonyl)piperazine-1-carboxylate]: the negative logarithm of the IC50 (pIC50) is 5.92.

In the case of `CCCOC(=O)N1CCN(C(=O)c2ccc3c(Cl)c(C)c(-c4cccc(C)c4)nc3c2)CC1` [B028, Propyl 4-(4-chloro-3-methyl-2-(m-tolyl)quinoline-7-carbonyl)piperazine-1-carboxylate], the pIC50 is 5.96.

With `CCCOC(=O)N1CCN(C(=O)c2ccc3c(Cl)c(C)c(-c4cccc(OC)c4)nc3c2)CC1` [B029, Propyl 4-(4-chloro-2-(3-methoxyphenyl)-3-methylquinoline-7-carbonyl)piperazine-1-carboxylate], the pIC50 was 5.85.

In the case of `CCCOC(=O)N1CCN(C(=O)c2ccc3c(Cl)c(C)c(-c4cccc(F)c4F)nc3c2)CC1` [B030, Propyl 4-(4-chloro-2-(2,3-difluorophenyl)-3-methylquinoline-7-carbonyl)piperazine-1-carboxylate], the negative logarithm of the IC50 (pIC50) is 5.24.

Take `CCCOC(=O)N1CCN(C(=O)c2ccc3c(Cl)c(C)c(-c4ccc(OC)cc4)nc3c2)CC1` [B031, Propyl 4-(4-chloro-2-(4-methoxyphenyl)-3-methylquinoline-7-carbonyl)piperazine-1-carboxylate]: the pIC50 is 6.55.

Consider `CCCOC(=O)N1CCN(C(=O)c2ccc3c(Cl)c(C)c(-c4cccc(C#N)c4)nc3c2)CC1` [B032, Propyl 4-(4-chloro-2-(3-cyanophenyl)-3-methylquinoline-7-carbonyl)piperazine-1-carboxylate], for which the negative-log IC50 (pIC50) was 5.26.
